Test results published in patent US4311698A, “Aminoacid derivatives of cephalosporin compounds” (priority 1980, dated 1982).
Values after ≈ are worked out from the molar mass of the structure shown.

Tests used:
Assay type in all cases: cell-based
[1] = tested on: Staph UC76; assay: In vitro minimal inhibitory concentration, Staph UC76
[2] = tested on: Pseudomonas UI 18; assay: In vitro minimal inhibitory concentration, Pseudomonas UI 18; conditions: UI18
[3] = tested on: Klebs. Pneum. MGH 2; assay: In vitro minimal inhibitory concentration, Klebs. Pneum. MGH 2
[4] = tested on: E. Coli. Brig; assay: In vitro minimal inhibitory concentration, E. Coli. Brig; conditions: Escherichia coli
[5] = tested on: Strep. fec. MGH 2; assay: In vitro minimal inhibitory concentration, Strep. fec. MGH 2
[6] = tested on: Pseudomonas BRK 12-4-4; assay: In vitro minimal inhibitory concentration, Pseudomonas BRK 12-4-4; conditions: BRK1244
[7] = tested on: Serr. Mar. IMM 16; assay: In vitro minimal inhibitory concentration, Serr. Mar. IMM 16
[8] = tested on: Entero Cloac. IM 11; assay: In vitro minimal inhibitory concentration, Entero Cloac. IM 11
[9] = tested on: Prot Vulg.; assay: In vitro minimal inhibitory concentration, Prot Vulg.
[10] = tested on: Pseudomonas #28; assay: In vitro minimal inhibitory concentration, Pseudomonas #28; conditions: Pseudomonas #28; in vitro; read-out: Minimal Inhibitory Concentration
[11] = tested on: E. Coli. Vogel; assay: In vitro minimal inhibitory concentration, E. Coli. Vogel; conditions: Escherichia coli
[12] = tested on: Staph S 18713; assay: In vitro minimal inhibitory concentration, Staph S 18713

| Structure (SMILES) | MIC [1] | MIC [2] | MIC [3] | MIC [4] | MIC [5] | MIC [6] | MIC [7] | MIC [8] | MIC [9] | MIC [10] | MIC [11] | MIC [12] |
| --- | --- | --- | --- | --- | --- | --- | --- | --- | --- | --- | --- | --- |
| CC(=O)NC(C)C(=O)Nc1ccc(-c2ccc(C(=O)N[C@@H](C(=O)NC3C(=O)N4C(C(=O)O)=C(COC(C)=O)CSC34)c3ccccc3)c(=O)[nH]2)cc1 (mixture of isomers) [Example 3, N-[6-[4-(N-Acetyl-DL-alanylamino)phenyl]-1,2-dihydro-2-oxonicotinyl]-7-[D-2-amino-2-phenylacetamido]-3-acetoxymethyl cephem-4-carboxylic acid] | 0.4 µg/mL | 6.3 µg/mL | 6.3 µg/mL | 12.5 µg/mL | 25 µg/mL | 12.5 µg/mL | 25 µg/mL | 25 µg/mL | 25 µg/mL | 12.5 µg/mL | 3.1 µg/mL |  |
| CC(=O)NC(C)C(=O)Nc1ccc(-c2ccc(C(=O)N[C@@H](C(=O)NC3C(=O)N4C(C(=O)O)=C(COC(N)=O)CSC34)c3ccccc3)c(=O)[nH]2)cc1 (mixture of isomers) [Example 10, N-[6-[4(N-Acetyl-DL-alanylamino)phenyl]-1,2-dihydro-2-oxonicotinyl]-7-[D-2-amino-2-phenylacetamido]-3-carbamoyloxymethyl-3-cephem-4-carboxylic acid] | 1.6 µg/mL | 6.3 µg/mL | 12.5 µg/mL | 12.5 µg/mL | 12.5 µg/mL | 12.5 µg/mL | > 50 µg/mL | 25 µg/mL | 12.5 µg/mL | 3.1 µg/mL | 6.3 µg/mL | 3.1 µg/mL |
| CC(=O)OCC1=C(C(=O)O)N2C(=O)C(NC(=O)[C@H](NC(=O)c3ccc(-c4ccc(NC(=O)C5CCCN5C(C)=O)cc4)[nH]c3=O)c3ccccc3)C2SC1 (mixture of isomers) [Example 17, N-[6-[4-(N-Acetyl-DL-prolylamino)phenyl]-1,2-dihydro-2-oxonicotinyl]-7-[D-2-amino-2-phenylacetamido]-3-acetoxymethyl-3-cephem-4-carboxylic acid] | 1.6 µg/mL | 12.5 µg/mL | 12.5 µg/mL | 25 µg/mL | 50 µg/mL | 25 µg/mL | 50 µg/mL | 25 µg/mL | 25 µg/mL | 12.5 µg/mL | 3.1 µg/mL | 3.1 µg/mL |
| CC(=O)NC(C)C(=O)Nc1ccc(-c2ccc(C(=O)N[C@@H](C(=O)NC3C(=O)N4C(C(=O)O)=C(CSc5nnnn5C)CSC34)c3ccccc3)c(=O)[nH]2)cc1 (mixture of isomers) [Example 18, N-[6-[4-(N-Acetyl-DL-alanylamino)phenyl]-1,2-dihydro-3-oxonicotinyl]-7-[D-2-amino-2-phenylacetamido]-3-[[(1-methyl-1H-tetrazol-5-yl)thio]methyl]-3-cephem-4-carboxylic acid] | 0.4 µg/mL | 6.3 µg/mL | 0.8 µg/mL | 3.1 µg/mL | 25 µg/mL | 12.5 µg/mL | 12.5 µg/mL | 6.3 µg/mL | 25 µg/mL | 6.3 µg/mL | 0.4 µg/mL | 3.1 µg/mL |
| CC(=O)NC(C)C(=O)Nc1ccc(-c2ccc(C(=O)N[C@@H](C(=O)NC3C(=O)N4C(C(=O)O)=C(CSc5nnc(C)s5)CSC34)c3ccccc3)c(=O)[nH]2)cc1 (mixture of isomers) [Example 22, N-[6-[4-(N-Acetyl-DL-alanylamino)phenyl]-1,2-dihydro-2-oxonicotinyl]-7-[D-2-amino-2-phenylacetamido]-3-[([4-methyl-1,3,4-thiadiazol-2-yl]thio)methyl]-3-cephem-4-carboxylic acid] | 0.4 µg/mL | 12.5 µg/mL | 3.1 µg/mL | 6.3 µg/mL | 12.5 µg/mL | 12.5 µg/mL | 25 µg/mL | 12.5 µg/mL | 12.5 µg/mL | 12.5 µg/mL | 1.6 µg/mL | 6.3 µg/mL |
| CC(=O)NCCCCC(NC(C)=O)C(=O)Nc1ccc(-c2ccc(C(=O)N[C@@H](C(=O)NC3C(=O)N4C(C(=O)O)=C(CSc5nnnn5C)CSC34)c3ccccc3)c(=O)[nH]2)cc1 (mixture of isomers) [Example 26, N-[6-[4-(N,N'-Diacetyl-DL-lysylamino)phenyl)-1,2-dihydro-2-oxonicotinyl]-7-[D-2-amino-2-phenylacetamido]3-[[(1-methyl-1H-tetrazol-5-yl)thio]methyl]-3-cephem-4-carboxylic acid] | 1.6 µg/mL | 12.5 µg/mL | 1.6 µg/mL | 12.5 µg/mL | 50 µg/mL | 12.5 µg/mL | 50 µg/mL | 6.3 µg/mL | 25 µg/mL | 12.5 µg/mL | 1.6 µg/mL | 6.3 µg/mL |
| CC(=O)NCCCCC(NC(C)=O)C(=O)Nc1ccc(-c2ccc(C(=O)N[C@@H](C(=O)NC3C(=O)N4C(C(=O)O)=C(COC(C)=O)CSC34)c3ccccc3)c(=O)[nH]2)cc1 (mixture of isomers) [Example 27, N-[6-[4-(N,N'-Diacetyl-DL-lysylamino)phenyl]-1,2-dihydro-2-oxonicotinyl]-7-[D-2-amino-2-phenylacetamido]-3-acetoxymethyl-3-cephem-4-carboxylic acid] | 1.6 µg/mL | 6.3 µg/mL | 6.3 µg/mL | 25 µg/mL | 25 µg/mL | 12.5 µg/mL | > 50 µg/mL | 12.5 µg/mL | 50 µg/mL | 3.1 µg/mL | 3.1 µg/mL | 12.5 µg/mL |
| CC(=O)N[C@H](C)C(=O)Nc1ccc(-c2ccc(C(=O)N[C@@H](C(=O)NC3C(=O)N4C(C(=O)O)=C(CSc5nnnn5CC(=O)O)CSC34)c3ccccc3)c(=O)[nH]2)cc1 (stereo partly drawn) [Example 1, N-[6-[4-(N-Acetyl-D-alanylamino)phenyl]-1,2-dihydro-2-oxonicotinyl]-7-[D-2-amino-2-phenylacetamido]-3-[[(1-carboxymethyl-1H-tetrazol-5-yl)thio]methyl]-3-cephem-4-carboxylic acid] | 3.1 µg/mL (≈ 3.73 µM) | 6.3 µg/mL (≈ 7.58 µM) | 3.1 µg/mL (≈ 3.73 µM) | 6.3 µg/mL (≈ 7.58 µM) | > 50 µg/mL | 12.5 µg/mL (≈ 15 µM) | 12.5 µg/mL (≈ 15 µM) | 3.1 µg/mL (≈ 3.73 µM) | 3.1 µg/mL (≈ 3.73 µM) | 6.3 µg/mL (≈ 7.58 µM) | 0.4 µg/mL (≈ 0.481 µM) | 12.5 µg/mL (≈ 15 µM) |
| CC(=O)N[C@H](C)C(=O)Nc1ccc(-c2ccc(C(=O)N[C@@H](C(=O)NC3C(=O)N4C(C(=O)O)=C(COC(C)=O)CSC34)c3ccccc3)c(=O)[nH]2)cc1 (stereo partly drawn) [Example 4, N-[6-[4-(N-Acetyl-D-alanylamino)phenyl]-1,2-dihydro-2-oxonicotinyl]-7-[D-2-amino-2-phenylacetamido]-3-acetoxymethyl-3-cephem-4-carboxylic acid] | 0.8 µg/mL (≈ 1.09 µM) | 6.3 µg/mL (≈ 8.62 µM) | 6.3 µg/mL (≈ 8.62 µM) | 12.5 µg/mL (≈ 17.1 µM) | 25 µg/mL (≈ 34.2 µM) | 12.5 µg/mL (≈ 17.1 µM) | 50 µg/mL (≈ 68.4 µM) | 12.5 µg/mL (≈ 17.1 µM) | 25 µg/mL (≈ 34.2 µM) | 6.3 µg/mL (≈ 8.62 µM) | 3.1 µg/mL (≈ 4.24 µM) |  |
| CC(=O)N[C@@H](C)C(=O)Nc1ccc(-c2ccc(C(=O)N[C@@H](C(=O)NC3C(=O)N4C(C(=O)O)=C(CSc5nnnn5C)CSC34)c3ccccc3)c(=O)[nH]2)cc1 (stereo partly drawn) [Example 20, N-[6-[4-(N-Acetyl-L-alanylamino)phenyl]-1,2-dihydro-2-oxonicotinyl]7-[D-2-amino-2-phenylacetamido]-3-[[(1-methyl-1H-tetrazol-5-yl)thio]methyl]-3-cephem-4-carboxylic acid] | 1.6 µg/mL (≈ 2.03 µM) | 12.5 µg/mL (≈ 15.9 µM) | 1.6 µg/mL (≈ 2.03 µM) | 6.3 µg/mL (≈ 8.01 µM) | 25 µg/mL (≈ 31.8 µM) | 12.5 µg/mL (≈ 15.9 µM) | 25 µg/mL (≈ 31.8 µM) | 6.3 µg/mL (≈ 8.01 µM) | 12.5 µg/mL (≈ 15.9 µM) | 12.5 µg/mL (≈ 15.9 µM) | 1.6 µg/mL (≈ 2.03 µM) |  |
| CC(=O)N[C@@H](CCC(N)=O)C(=O)Nc1ccc(-c2ccc(C(=O)N[C@@H](C(=O)NC3C(=O)N4C(C(=O)O)=C(CSc5nnnn5CC(=O)O)CSC34)c3ccccc3)c(=O)[nH]2)cc1 (stereo partly drawn) [Example 21, N-[6-[4-(N-Acetyl-L-glutaminylamino)phenyl]-1,2-dihydro-2-oxonicotinyl]-7-[D-2-amino-2-phenylacetamido]-3-[[(1-carboxymethyl-1H-tetrazol-5-yl)thio]methyl]-3-cephem-4-carboxylic acid] | 6.3 µg/mL (≈ 7.1 µM) | 6.3 µg/mL (≈ 7.1 µM) | 3.1 µg/mL (≈ 3.49 µM) | 3.1 µg/mL (≈ 3.49 µM) | 50 µg/mL (≈ 56.3 µM) | 12.5 µg/mL (≈ 14.1 µM) | 12.5 µg/mL (≈ 14.1 µM) | 6.3 µg/mL (≈ 7.1 µM) | 3.1 µg/mL (≈ 3.49 µM) | 6.3 µg/mL (≈ 7.1 µM) | 3.1 µg/mL (≈ 3.49 µM) |  |
| CC(=O)N[C@H](C)C(=O)Nc1ccc(-c2ccc(C(=O)N[C@@H](C(=O)NC3C(=O)N4C(C(=O)O)=C(COC(N)=O)CSC34)c3ccccc3)c(=O)[nH]2)cc1 (stereo partly drawn) [Example 24, N-[6-[4(N-Acetyl-D-alanylamino)phenyl]-1,2-dihydro-2-oxonicotinyl]-7-[D-2-amino-phenylacetamido]-3-carbamoyloxymethyl-3-cephem-4-carboxylic acid] | 0.4 µg/mL (≈ 0.547 µM) | 12.5 µg/mL (≈ 17.1 µM) | 12.5 µg/mL (≈ 17.1 µM) | 25 µg/mL (≈ 34.2 µM) | 25 µg/mL (≈ 34.2 µM) | 12.5 µg/mL (≈ 17.1 µM) | > 50 µg/mL | 25 µg/mL (≈ 34.2 µM) | 12.5 µg/mL (≈ 17.1 µM) | 12.5 µg/mL (≈ 17.1 µM) | 6.3 µg/mL (≈ 8.61 µM) |  |
| CC(=O)N[C@H](CCC(N)=O)C(=O)Nc1ccc(-c2ccc(C(=O)N[C@@H](C(=O)NC3C(=O)N4C(C(=O)O)=C(CSc5nnnn5CC(=O)O)CSC34)c3ccccc3)c(=O)[nH]2)cc1 (stereo partly drawn) [Example 37, N-[6-[4-(N-Acetyl-D-glutaminylamino)phenyl]-1,2-dihydro-2-oxonicotinyl]-7-[D-2-amino-2-phenylacetamido]-3-[[(1-carboxymethyl-1H-tetrazol-5-yl)thio]methyl]-3-cephem-4-carboxylic acid] | 6.3 µg/mL (≈ 7.1 µM) | 12.5 µg/mL (≈ 14.1 µM) | 3.1 µg/mL (≈ 3.49 µM) | 6.3 µg/mL (≈ 7.1 µM) | > 50 µg/mL | 12.5 µg/mL (≈ 14.1 µM) | 12.5 µg/mL (≈ 14.1 µM) | 6.3 µg/mL (≈ 7.1 µM) | 3.1 µg/mL (≈ 3.49 µM) | 6.3 µg/mL (≈ 7.1 µM) | 0.8 µg/mL (≈ 0.901 µM) |  |
